Data from patent US20080199847A1, “Method for Predicting the Metabolism of Drug in Human Liver and Liver Function” (Daiichi Pure Chemicals Co., Ltd., priority 2004, published 2008).
Several values for one entry are separate records, joined by “and”; a condition that tells them apart may be missing. Equal values may be shown once.

Assay: Radioactivity levels of tissue and plasma samples two hours after administration
Conditions: 5 mg/kg iv
Description: Chimeric mice from PhoenixBio Co., Ltd. were employed.
The pH of the solution was adjusted to 7.0 with a 0.1% aqueous citric acid solution, and the concentration was adjusted to 1 mg/mL with distilled water for injection. The liquid was bolus-administered at 5 mL/kg to the caudal vein of the mice (5 mg/5 mL/kg).
Livers and kidneys were taken from other mice two hours after administration, following sacrificing through exsanguination. Blood plasma was collected by sampling blood through the orbital venousplexus and centrifuging it. Bile was collected from the chimeric mice and the control mice through bile duct cannulation until 72 hours after administration.
Radioactivity of each sample was determined by use of a liquid scintillator (Hionic-flow, product of Perkin-Elmer) with Tri-Carb 2500 (Perkin-Elmer) as a liquid scintillation counter. The measurement was performed for two minutes.
In analysis of blood plasma, bile, and urine, the sample (10 μL) was collected in a 20-mL glass vial, added Hionic-flow (10 mL), and the mixture was analyzed.
In analysis of tissue samples (liver and kidney), an amount 3-fold (by weight) of acetate buffer (0.1M, pH3.0) was added to each sample, and the mixture was homogenized with a polytron-homogenizer. An aliquot (50 μL) of the homogenate was solubilized with 2 mL of Soluene 350 (Perkin-Elmer), added Hionic-flow (10 mL), and the mixture was analyzed.

With `CC(C(=O)O)c1cccc(C(=O)c2ccccc2)c1` (centres unmarked) [ketoprofen, Ketoprofen] the “Concentration (radioactivity level), kidney” value (chimeric mice) was 5.03±1.25 μg eq./mL and 5.03 μg eq./mL and the “Concentration (radioactivity level), kidney” value (control mice) was 4.70±0.61 μg eq./mL and 4.70 μg eq./mL.
